± gives the expanded uncertainty stated by the source.
Test: activity coefficient (dimensionless); of the first substance listed, at infinite dilution; xn = mol fraction of the nth substance listed
Details: Liquid, Chromatography, x1 = 0

Work on `C=CCCC` [1-pentene] + CCCCCC[N+]1(C)CCCC1.O=S(=O)([N-]S(=O)(=O)C(F)(F)F)C(F)(F)F yielded an activity coefficient (303.16 K) of 3.4 ± 0.15, an activity coefficient (313.17 K) of 3.37 ± 0.15 and an activity coefficient (323.15 K) of 3.33 ± 0.15. It also gave an activity coefficient (333.15 K) of 3.31 ± 0.15.
Compound `CCCCCCCCCC` [decane] + CCCCCC[N+]1(C)CCCC1.O=S(=O)([N-]S(=O)(=O)C(F)(F)F)C(F)(F)F has an activity coefficient (303.13 K) of 28.1 ± 1.3, an activity coefficient (313.17 K) of 27 ± 1.2 and an activity coefficient (323.16 K) of 25.1 ± 1.2. The activity coefficient (333.16 K) was 24.3 ± 1.1 and the activity coefficient (343.13 K) was 23 ± 1.1.
`CCCCCCC` [heptane] + CCCCCCCC[N+]1(C)CCCC1.O=S(=O)([N-]S(=O)(=O)C(F)(F)F)C(F)(F)F gave an activity coefficient (303.1 K) of 6.9 ± 0.32, an activity coefficient (313.15 K) of 6.73 ± 0.31 and an activity coefficient (323.09 K) of 6.54 ± 0.3. It also gave an activity coefficient (333.13 K) of 6.36 ± 0.29.
Compound `CCCCCCC` [heptane] + CCCCCC[N+]1(C)CCCC1.O=S(=O)([N-]S(=O)(=O)C(F)(F)F)C(F)(F)F has an activity coefficient (303.16 K) of 11.4 ± 0.52, an activity coefficient (313.16 K) of 10.8 ± 0.49 and an activity coefficient (323.15 K) of 10.3 ± 0.47. The activity coefficient (333.12 K) was 9.89 ± 0.45.
For `C=CCCCC` [hex-1-ene] + CCCCCCCC[N+]1(C)CCCC1.O=S(=O)([N-]S(=O)(=O)C(F)(F)F)C(F)(F)F, the activity coefficient (303.14 K) was 3.11 ± 0.14, the activity coefficient (313.13 K) was 3.29 ± 0.15 and the activity coefficient (323.11 K) was 3.22 ± 0.15. The activity coefficient (343.11 K) was 3.15 ± 0.14.
`C=CCCCC` [hex-1-ene] + CCCCCC[N+]1(C)CCCC1.O=S(=O)([N-]S(=O)(=O)C(F)(F)F)C(F)(F)F gave an activity coefficient (303.16 K) of 4.77 ± 0.22, an activity coefficient (313.17 K) of 4.63 ± 0.21 and an activity coefficient (323.15 K) of 4.55 ± 0.21. It also gave an activity coefficient (333.15 K) of 4.45 ± 0.2.
In the case of `CCCCCC` [hexane] + CCCCCCCC[N+]1(C)CCCC1.O=S(=O)([N-]S(=O)(=O)C(F)(F)F)C(F)(F)F, the activity coefficient (303.16 K) is reported as 5.24 ± 0.24, the activity coefficient (313.13 K) is reported as 5.05 ± 0.23 and the activity coefficient (323.17 K) is reported as 4.9 ± 0.22. It also gave an activity coefficient (333.19 K) of 4.8 ± 0.22.
Compound `CCCCCC` [hexane] + CCCCCC[N+]1(C)CCCC1.O=S(=O)([N-]S(=O)(=O)C(F)(F)F)C(F)(F)F has an activity coefficient (303.15 K) of 8.4 ± 0.39, an activity coefficient (313.19 K) of 7.85 ± 0.36 and an activity coefficient (323.16 K) of 7.21 ± 0.33. The activity coefficient (333.14 K) was 6.57 ± 0.3.
Compound `CCCCCCCCC` [nonane] + CCCCCC[N+]1(C)CCCC1.O=S(=O)([N-]S(=O)(=O)C(F)(F)F)C(F)(F)F has an activity coefficient (303.13 K) of 21.4 ± 0.99, an activity coefficient (313.17 K) of 19.9 ± 0.92 and an activity coefficient (323.16 K) of 18.8 ± 0.87. It also gave an activity coefficient (333.16 K) of 18.1 ± 0.84 and an activity coefficient (343.13 K) of 17.1 ± 0.79.
Compound `C=CCCCCCC` [oct-1-ene] + CCCCCCCC[N+]1(C)CCCC1.O=S(=O)([N-]S(=O)(=O)C(F)(F)F)C(F)(F)F has an activity coefficient (313.11 K) of 5.53 ± 0.25, an activity coefficient (323.14 K) of 5.4 ± 0.25 and an activity coefficient (333.17 K) of 5.27 ± 0.24. For the same compound, the activity coefficient (343.21 K) was 5.21 ± 0.24.
With `C=CCCCCCC` [oct-1-ene] + CCCCCC[N+]1(C)CCCC1.O=S(=O)([N-]S(=O)(=O)C(F)(F)F)C(F)(F)F the activity coefficient (303.14 K) was 8.93 ± 0.41, the activity coefficient (313.16 K) was 8.61 ± 0.4 and the activity coefficient (323.37 K) was 8.39 ± 0.38. For the same compound, the activity coefficient (333.16 K) was 8.2 ± 0.38.
`CCCCCCCC` [octane] + CCCCCCCC[N+]1(C)CCCC1.O=S(=O)([N-]S(=O)(=O)C(F)(F)F)C(F)(F)F gave an activity coefficient (303.1 K) of 8.78 ± 0.4, an activity coefficient (313.15 K) of 8.55 ± 0.39 and an activity coefficient (323.09 K) of 8.39 ± 0.38. It also gave an activity coefficient (333.13 K) of 8.22 ± 0.38.
With `CCCCCCCC` [octane] + CCCCCC[N+]1(C)CCCC1.O=S(=O)([N-]S(=O)(=O)C(F)(F)F)C(F)(F)F the activity coefficient (303.16 K) was 15.8 ± 0.73, the activity coefficient (313.16 K) was 14.7 ± 0.68 and the activity coefficient (323.15 K) was 13.9 ± 0.64. For the same compound, the activity coefficient (333.12 K) was 13.3 ± 0.61.
Work on `CCCCC` [pentane] + CCCCCC[N+]1(C)CCCC1.O=S(=O)([N-]S(=O)(=O)C(F)(F)F)C(F)(F)F yielded an activity coefficient (303.15 K) of 5.66 ± 0.26, an activity coefficient (313.19 K) of 5.31 ± 0.24 and an activity coefficient (323.16 K) of 4.8 ± 0.22. For the same compound, the activity coefficient (333.14 K) was 4.51 ± 0.21.
